Source: patent publication US9050341B2, “Methods of treating drug resistant and other tumors by administering 6,7-dialkoxy quinazoline derivatives” (NATCO PHARMA LIMITED, priority 2009, dated 2015)

How the values were obtained:
ACVRL1 = biological target: T1, ACVRL1 (Homo sapiens, UniProt P37023); assay: KinomeScan kinase profiling; type: binding
T1 construct: host or cells: E. coli host derived from BL21 (T7 phage lysate)

MARK1 = biological target: T2, MARK1 (Homo sapiens, UniProt Q9P0L2); assay: KinomeScan kinase profiling; type: binding
T2 construct: host or cells: E. coli derived from BL21, infected with T7 phage

PKAC-beta = biological target: T3, PKAC-beta (Homo sapiens, UniProt P22694); assay: KinomeScan kinase profiling; type: binding
T3 construct: purchased Ambit Biosciences Corp (KinomeScan); host or cells: E. coli host derived from BL21, infected with T7 phage

[1] = biological target: T4, RPS6KA1 (Kin.Dom.-2-C-terminal) (Homo sapiens, UniProt Q15418); assay: KinomeScan kinase profiling; type: binding
T4 construct: RPS6KA1 (Kin.Dom.-2-C-terminal); host or cells: E. coli host derived from BL21, T7 phage lysate

PIP5K2B = biological target: T5, PIP5K2B (Homo sapiens, UniProt P78356); assay: KinomeScan kinase profiling; type: binding
T5 construct: purchased Ambit Biosciences Corp (KinomeScan); host or cells: E. coli host derived from BL21, infected with T7 phage

hERG channel = hERG channel (Homo sapiens, UniProt Q12809); assay: hERG whole cell patch-clamp in CHO cells; conditions: 10 μM
Protocol: The test compound was evaluated at 10 μM in 0.1% DMSO (v/v). […] The vehicle control was 0.1% (v/v) DMSO in EC solution.
The selection medium was F-12 (Ham)+GlutaMAX, Ph 7.2, 10% FBS, Penicillin (100 U/mL), Streptomycin (100 μg/mL), Blasticidin S HCL (30 μg/mL) and Hygromycin B (400 μg/mL). The growth medium was F-12 (Ham)+GlutaMAX, 10% FBS, Penicillin (100 U/mL) and Streptomycin (100 μg/mL). The induction medium was F-12 (Ham)+GlutaMAX, 10% FBS, Penicillin (100 U/mL) and Streptomycin (100 μg/mL) and Doxycycline (3 μg/mL). The cell dissociation solution was 0.05% Trypsin-EDTA.

CDK2 = biological target: T6, CDK2 (Homo sapiens, UniProt P24941); assay: KinomeScan kinase profiling; type: binding
T6 construct: host or cells: T7 phage in E. coli (BL21-derived)

EPHA1 = biological target: T7, EPHA1 (Homo sapiens, UniProt P21709); assay: KinomeScan kinase profiling; type: binding
T7 construct: host or cells: E. coli host derived from BL21, T7 phage lysate

TAOK1 = biological target: T8, TAOK1 (Homo sapiens, UniProt Q7L7X3); assay: KinomeScan kinase profiling; type: binding
T8 construct: host or cells: E. coli host derived from the BL21 strain, T7 phage lysate

PDPK1 = biological target: T9, PDPK1 (Homo sapiens, UniProt O15530); assay: KinomeScan kinase profiling; type: binding
T9 construct: host or cells: E. coli host derived from the BL21 strain, infected with T7 phage

[2] = biological target: T10, RPS6KA3 (Kin.Dom.-1-N-terminal) (Homo sapiens, UniProt P51812); assay: KinomeScan kinase profiling; type: binding
T10 construct: RPS6KA3 (Kin.Dom.-1-N-terminal); host or cells: E. coli host derived from BL21, T7 phage lysate

STK33 = biological target: T11, STK33 (Homo sapiens, UniProt Q9BYT3); assay: KinomeScan kinase profiling; type: binding
T11 construct: host or cells: E. coli host derived from the BL21 strain, T7 phage lysate

SRPK3 = biological target: T12, SRPK3 (Homo sapiens, UniProt Q9UPE1); assay: KinomeScan kinase profiling; type: binding
T12 construct: host or cells: E. coli host derived from the BL21 strain, T7 phage lysate

YES = biological target: T13, YES (Homo sapiens, UniProt P07947); assay: KinomeScan kinase profiling; type: binding
T13 construct: purchased Ambit Biosciences Corp (KinomeScan); host or cells: E. coli host derived from the BL21 strain (T7 phage lysate)

CDC2L1 = biological target: T14, CDC2L1 (Homo sapiens, UniProt P21127); assay: KinomeScan kinase profiling; type: binding
T14 construct: host or cells: T7 phage in E. coli (BL21-derived)

SRPK1 = biological target: T15, SRPK1 (Homo sapiens, UniProt Q96SB4); assay: KinomeScan kinase profiling; type: binding
T15 construct: host or cells: E. coli host derived from the BL21 strain, T7 phage lysate

PKN1 = biological target: T16, PKN1 (Homo sapiens, UniProt Q16512); assay: KinomeScan kinase profiling; type: binding
T16 construct: purchased Ambit Biosciences Corp (KinomeScan); host or cells: E. coli host derived from BL21, infected with T7 phage

CDK9 = biological target: T17, CDK9 (Homo sapiens, UniProt P50750); assay: KinomeScan kinase profiling; type: binding
T17 construct: host or cells: T7 phage in E. coli (BL21-derived)

YANK2 = biological target: T18, YANK2 (Homo sapiens, UniProt Q9NY57); assay: KinomeScan kinase profiling; type: binding
T18 construct: purchased Ambit Biosciences Corp (KinomeScan); host or cells: E. coli host derived from the BL21 strain (T7 phage lysate)

DMPK2 = biological target: T19, DMPK2 (Homo sapiens, UniProt Q6DT37); assay: KinomeScan kinase profiling; type: binding
T19 construct: purchased Ambit Biosciences Corp (KinomeScan); host or cells: T7 phage in E. coli host derived from BL21

CHEK1 = biological target: T20, CHEK1 (Homo sapiens, UniProt O14757); assay: KinomeScan kinase profiling; type: binding
T20 construct: host or cells: T7 phage in E. coli (BL21-derived)

CAMK2G = biological target: T21, CAMK2G (Homo sapiens, UniProt Q13555); assay: KinomeScan kinase profiling; type: binding
T21 construct: purchased Ambit Biosciences Corp (KinomeScan); host or cells: E. coli host derived from the BL21 strain, T7 phage

MUSK = biological target: T22, MUSK (Homo sapiens, UniProt O15146); assay: KinomeScan kinase profiling; type: binding
T22 construct: host or cells: T7 phage in E. coli host derived from BL21

DCAMKL1 = biological target: T23, DCAMKL1 (Homo sapiens, UniProt O15075); assay: KinomeScan kinase profiling; type: binding
T23 construct: purchased Ambit Biosciences Corp (KinomeScan); host or cells: T7 phage in E. coli host derived from BL21

MARK3 = biological target: T24, MARK3 (Homo sapiens, UniProt P27448); assay: KinomeScan kinase profiling; type: binding
T24 construct: host or cells: E. coli derived from BL21, infected with T7 phage

ACVR1B = biological target: T25, ACVR1B (Homo sapiens, UniProt P36896); assay: KinomeScan kinase profiling; type: binding
T25 construct: host or cells: E. coli host derived from BL21 (T7 phage lysate)

ERK2 = biological target: T26, ERK2 (Homo sapiens, UniProt P28482); assay: KinomeScan kinase profiling; type: binding
T26 construct: host or cells: E. coli host derived from BL21, T7 phage lysate

PAK6 = biological target: T27, PAK6 (Homo sapiens, UniProt Q9NQU5); assay: KinomeScan kinase profiling; type: binding
T27 construct: host or cells: E. coli host derived from the BL21 strain, infected with T7 phage

MAPKAPK2 = biological target: T28, MAPKAPK2 (Homo sapiens, UniProt P49137); assay: KinomeScan kinase profiling; type: binding
T28 construct: host or cells: E. coli derived from BL21, infected with T7 phage

FGFR2 = biological target: T29, FGFR2 (Homo sapiens, UniProt P21802); assay: KinomeScan kinase profiling; type: binding
T29 construct: host or cells: E. coli host derived from BL21, infected with T7 phage

ROS1 = biological target: T30, ROS1 (Homo sapiens, UniProt P08922); assay: KinomeScan kinase profiling; type: binding
T30 construct: host or cells: E. coli host derived from BL21, T7 phage lysate

ULK2 = biological target: T31, ULK2 (Homo sapiens, UniProt Q8IYT8); assay: KinomeScan kinase profiling; type: binding
T31 construct: purchased Ambit Biosciences Corp (KinomeScan); host or cells: E. coli host derived from the BL21 strain (T7 phage lysate)

EPHA2 = biological target: T32, EPHA2 (Homo sapiens, UniProt P29317); assay: KinomeScan kinase profiling; type: binding
T32 construct: host or cells: E. coli host derived from BL21, T7 phage lysate

IKK-beta = biological target: T33, IKK-beta (Homo sapiens, UniProt O14920); assay: KinomeScan kinase profiling; type: binding
T33 construct: host or cells: T7 phage in E. coli host derived from BL21

[3] = Acute oral toxicity (MTD) in Swiss albino mice; type: in vivo; conditions: for clinical signs of toxicity: oral, 1000 mg/kg (high dose), mono hydrochloride, 1000 mg/kg
Protocol: 20 male and 20 female Swiss albino mice were randomly divided into four groups (G1-G4). Each group was 5 male and 5 female Swiss albino mice. […] G1 was treated with placebo and served as a control. […] The mid dose group animals (G3-treated with 500 mg/kg b.wt) were administered the dose formulation twice with a gap of approximately 1 hour. Animals from high dose group (G4-treated with 1000 mg/kg b.wt) received the dose formulation four times with a gap of approximately one hour.

T18 sequence (Q9NY57 whole entry): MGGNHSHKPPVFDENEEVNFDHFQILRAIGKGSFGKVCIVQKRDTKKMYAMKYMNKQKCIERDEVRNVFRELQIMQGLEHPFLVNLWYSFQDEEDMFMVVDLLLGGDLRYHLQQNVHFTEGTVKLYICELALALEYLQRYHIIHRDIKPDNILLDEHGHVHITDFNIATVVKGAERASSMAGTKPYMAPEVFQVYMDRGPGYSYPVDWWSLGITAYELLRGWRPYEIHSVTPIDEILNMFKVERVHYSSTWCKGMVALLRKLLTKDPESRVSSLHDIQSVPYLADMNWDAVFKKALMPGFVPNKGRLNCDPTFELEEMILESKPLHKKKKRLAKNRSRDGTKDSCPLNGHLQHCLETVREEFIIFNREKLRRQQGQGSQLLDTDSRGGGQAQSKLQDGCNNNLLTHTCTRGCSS
T24 sequence (P27448 whole entry): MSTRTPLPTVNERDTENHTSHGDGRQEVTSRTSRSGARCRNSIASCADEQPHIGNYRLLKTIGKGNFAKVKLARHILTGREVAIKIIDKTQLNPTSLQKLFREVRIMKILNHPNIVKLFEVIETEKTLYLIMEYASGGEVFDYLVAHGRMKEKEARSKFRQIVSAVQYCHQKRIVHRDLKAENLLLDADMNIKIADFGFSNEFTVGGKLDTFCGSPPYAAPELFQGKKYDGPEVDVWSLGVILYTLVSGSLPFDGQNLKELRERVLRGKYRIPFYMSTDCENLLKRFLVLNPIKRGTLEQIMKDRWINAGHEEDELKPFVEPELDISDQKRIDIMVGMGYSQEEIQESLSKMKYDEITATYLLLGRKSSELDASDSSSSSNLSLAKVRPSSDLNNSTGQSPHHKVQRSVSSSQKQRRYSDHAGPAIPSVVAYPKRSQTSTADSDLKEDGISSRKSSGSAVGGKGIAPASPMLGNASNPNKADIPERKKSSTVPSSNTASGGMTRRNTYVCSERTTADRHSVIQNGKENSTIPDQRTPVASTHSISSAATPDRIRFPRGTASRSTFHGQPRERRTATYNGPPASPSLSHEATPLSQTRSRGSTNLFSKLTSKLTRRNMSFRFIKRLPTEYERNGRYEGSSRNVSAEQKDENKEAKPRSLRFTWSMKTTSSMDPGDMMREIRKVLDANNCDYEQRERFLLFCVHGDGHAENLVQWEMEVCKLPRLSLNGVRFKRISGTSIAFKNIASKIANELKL
T29 sequence (P21802 22-821): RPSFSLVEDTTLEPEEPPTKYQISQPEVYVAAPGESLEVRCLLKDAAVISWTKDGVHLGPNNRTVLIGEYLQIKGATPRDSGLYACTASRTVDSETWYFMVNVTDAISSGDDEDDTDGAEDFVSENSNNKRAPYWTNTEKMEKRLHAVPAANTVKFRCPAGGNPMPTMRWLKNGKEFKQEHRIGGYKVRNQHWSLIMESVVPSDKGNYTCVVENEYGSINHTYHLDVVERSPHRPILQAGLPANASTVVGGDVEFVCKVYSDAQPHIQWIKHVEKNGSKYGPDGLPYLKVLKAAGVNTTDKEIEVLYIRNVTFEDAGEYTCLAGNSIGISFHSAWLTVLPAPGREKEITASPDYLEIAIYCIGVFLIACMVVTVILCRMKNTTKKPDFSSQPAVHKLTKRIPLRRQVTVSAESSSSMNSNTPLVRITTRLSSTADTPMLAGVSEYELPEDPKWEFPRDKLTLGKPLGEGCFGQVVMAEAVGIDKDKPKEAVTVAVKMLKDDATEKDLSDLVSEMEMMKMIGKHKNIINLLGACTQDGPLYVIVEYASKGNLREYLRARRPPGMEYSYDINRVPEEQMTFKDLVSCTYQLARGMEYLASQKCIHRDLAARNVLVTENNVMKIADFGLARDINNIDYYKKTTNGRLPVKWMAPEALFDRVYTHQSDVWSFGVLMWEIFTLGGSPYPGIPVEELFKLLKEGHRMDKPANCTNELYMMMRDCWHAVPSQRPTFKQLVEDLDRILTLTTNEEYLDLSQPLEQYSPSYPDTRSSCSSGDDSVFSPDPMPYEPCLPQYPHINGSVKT
T30 sequence (P08922 28-2347): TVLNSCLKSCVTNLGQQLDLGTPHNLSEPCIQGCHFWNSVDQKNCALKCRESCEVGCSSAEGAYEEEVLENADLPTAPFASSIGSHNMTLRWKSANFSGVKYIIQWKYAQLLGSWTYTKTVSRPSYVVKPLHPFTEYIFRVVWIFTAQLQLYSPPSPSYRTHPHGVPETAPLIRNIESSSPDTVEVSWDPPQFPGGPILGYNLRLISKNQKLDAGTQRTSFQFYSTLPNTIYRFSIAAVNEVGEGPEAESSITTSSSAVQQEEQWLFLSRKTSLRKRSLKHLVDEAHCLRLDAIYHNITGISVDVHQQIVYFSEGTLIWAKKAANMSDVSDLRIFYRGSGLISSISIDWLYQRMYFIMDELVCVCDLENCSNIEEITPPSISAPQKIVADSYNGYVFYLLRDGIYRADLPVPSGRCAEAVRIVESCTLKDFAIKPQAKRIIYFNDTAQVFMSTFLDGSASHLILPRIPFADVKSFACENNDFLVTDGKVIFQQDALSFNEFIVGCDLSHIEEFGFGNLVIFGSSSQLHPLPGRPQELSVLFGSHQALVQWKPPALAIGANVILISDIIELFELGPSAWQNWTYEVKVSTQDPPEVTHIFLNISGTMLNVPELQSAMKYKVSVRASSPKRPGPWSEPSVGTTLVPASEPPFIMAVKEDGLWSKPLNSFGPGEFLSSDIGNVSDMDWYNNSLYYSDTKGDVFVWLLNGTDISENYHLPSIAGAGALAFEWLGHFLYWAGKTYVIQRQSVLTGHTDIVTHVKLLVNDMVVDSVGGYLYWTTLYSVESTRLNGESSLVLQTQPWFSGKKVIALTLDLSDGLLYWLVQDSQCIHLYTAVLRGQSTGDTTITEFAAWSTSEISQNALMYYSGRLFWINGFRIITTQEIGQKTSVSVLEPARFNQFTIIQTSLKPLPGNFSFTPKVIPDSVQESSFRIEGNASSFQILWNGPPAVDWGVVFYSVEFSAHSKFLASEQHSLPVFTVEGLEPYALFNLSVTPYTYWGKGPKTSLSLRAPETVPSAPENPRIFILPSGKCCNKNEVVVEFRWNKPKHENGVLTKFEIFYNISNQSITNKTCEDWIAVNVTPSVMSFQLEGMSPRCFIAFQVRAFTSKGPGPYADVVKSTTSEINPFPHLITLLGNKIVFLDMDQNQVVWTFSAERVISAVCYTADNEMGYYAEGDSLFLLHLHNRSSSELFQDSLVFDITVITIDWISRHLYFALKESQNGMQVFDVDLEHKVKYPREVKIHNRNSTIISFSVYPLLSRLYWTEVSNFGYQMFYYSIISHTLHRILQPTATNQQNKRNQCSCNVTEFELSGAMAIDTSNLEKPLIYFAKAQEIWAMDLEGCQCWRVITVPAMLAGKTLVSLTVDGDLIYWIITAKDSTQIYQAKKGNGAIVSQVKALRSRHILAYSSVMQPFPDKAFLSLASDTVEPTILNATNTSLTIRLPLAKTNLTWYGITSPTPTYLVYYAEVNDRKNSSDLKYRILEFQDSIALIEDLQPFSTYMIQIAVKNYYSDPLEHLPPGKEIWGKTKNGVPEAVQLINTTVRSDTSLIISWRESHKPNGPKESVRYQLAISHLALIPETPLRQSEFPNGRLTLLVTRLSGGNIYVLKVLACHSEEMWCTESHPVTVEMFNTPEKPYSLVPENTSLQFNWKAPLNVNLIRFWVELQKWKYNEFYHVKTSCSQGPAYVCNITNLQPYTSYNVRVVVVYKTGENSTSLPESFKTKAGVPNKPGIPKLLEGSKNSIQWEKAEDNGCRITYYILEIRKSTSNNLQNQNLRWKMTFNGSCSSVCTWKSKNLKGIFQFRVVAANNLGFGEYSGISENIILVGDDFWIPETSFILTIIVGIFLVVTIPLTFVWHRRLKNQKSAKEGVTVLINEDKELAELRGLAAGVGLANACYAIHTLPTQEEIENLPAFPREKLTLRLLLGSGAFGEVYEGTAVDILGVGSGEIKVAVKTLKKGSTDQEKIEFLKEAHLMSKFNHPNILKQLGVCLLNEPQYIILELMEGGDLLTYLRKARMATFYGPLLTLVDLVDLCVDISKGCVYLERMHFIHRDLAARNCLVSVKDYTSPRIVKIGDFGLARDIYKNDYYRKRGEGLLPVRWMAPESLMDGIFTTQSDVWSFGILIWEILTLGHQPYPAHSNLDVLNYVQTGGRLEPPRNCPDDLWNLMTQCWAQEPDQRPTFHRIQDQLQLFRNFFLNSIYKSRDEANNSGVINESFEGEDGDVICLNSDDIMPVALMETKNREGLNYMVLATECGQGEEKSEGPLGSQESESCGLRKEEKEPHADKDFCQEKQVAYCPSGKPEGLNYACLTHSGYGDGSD
T25 sequence (P36896 24-505): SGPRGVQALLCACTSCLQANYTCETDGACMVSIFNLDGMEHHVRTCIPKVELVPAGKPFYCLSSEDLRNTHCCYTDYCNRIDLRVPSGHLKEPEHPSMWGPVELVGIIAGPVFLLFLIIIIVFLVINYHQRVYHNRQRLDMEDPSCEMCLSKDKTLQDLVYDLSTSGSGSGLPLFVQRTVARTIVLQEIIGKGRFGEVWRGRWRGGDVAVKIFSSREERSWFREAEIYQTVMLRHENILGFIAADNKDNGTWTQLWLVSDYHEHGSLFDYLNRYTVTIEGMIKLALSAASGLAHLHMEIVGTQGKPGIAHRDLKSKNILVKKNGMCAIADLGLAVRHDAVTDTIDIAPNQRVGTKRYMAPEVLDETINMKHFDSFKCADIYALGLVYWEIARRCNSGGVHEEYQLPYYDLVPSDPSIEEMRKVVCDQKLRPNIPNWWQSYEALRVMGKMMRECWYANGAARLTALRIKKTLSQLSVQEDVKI
T4 sequence (Q15418 418-675 limits assumed): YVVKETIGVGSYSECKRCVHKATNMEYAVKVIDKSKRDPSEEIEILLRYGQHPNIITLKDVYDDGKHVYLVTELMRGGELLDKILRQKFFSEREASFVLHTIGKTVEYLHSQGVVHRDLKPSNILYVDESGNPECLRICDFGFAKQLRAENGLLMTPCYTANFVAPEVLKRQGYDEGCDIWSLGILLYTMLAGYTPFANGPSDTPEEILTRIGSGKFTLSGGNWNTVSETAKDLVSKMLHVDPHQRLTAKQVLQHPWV

C#Cc1cccc(Nc2ncnc3cc(OC)c(OCCCN4CCOCC4)cc23)c1 [NRC-2694, N-(3-ethylnylphenyl)-7-methoxy-6-[3-(4-morpholinyl)propoxy]-4-quinazolinamine]
% Ctrl @ 10000 nM (ACVRL1): 91 % Ctrl
% Ctrl @ 10000 nM (MARK1): 56 % Ctrl
% Ctrl @ 10000 nM (PKAC-beta): 88 % Ctrl
% Ctrl @ 10000 nM [1]: 49 % Ctrl
% Ctrl @ 10000 nM (PIP5K2B): 49 % Ctrl
hERG channel, conclusion (hERG channel): an inhibitor of the hERG channel
% Ctrl @ 10000 nM (CDK2): 94 % Ctrl
% Ctrl @ 10000 nM (EPHA1): 55 % Ctrl
% Ctrl @ 10000 nM (TAOK1): 54 % Ctrl
% Ctrl @ 10000 nM (PDPK1): 94 % Ctrl
% Ctrl @ 10000 nM [2]: 94 % Ctrl
% Ctrl @ 10000 nM (STK33): 43 % Ctrl
% Ctrl @ 10000 nM (SRPK3): 38 % Ctrl
% Ctrl @ 10000 nM (YES): 41 % Ctrl
% Ctrl @ 10000 nM (CDC2L1): 42 % Ctrl
% Ctrl @ 10000 nM (SRPK1): 40 % Ctrl
% Ctrl @ 10000 nM (PKN1): 50 % Ctrl
% Ctrl @ 10000 nM (CDK9): 86 % Ctrl
% Ctrl @ 10000 nM (YANK2): 68 % Ctrl
% Ctrl @ 10000 nM (DMPK2): 61 % Ctrl
% Ctrl @ 10000 nM (CHEK1): 42 % Ctrl
% Ctrl @ 10000 nM (CAMK2G): 58 % Ctrl
% Ctrl @ 10000 nM (MUSK): 100 % Ctrl
% Ctrl @ 10000 nM (DCAMKL1): 92 % Ctrl
% Ctrl @ 10000 nM (MARK3): 62 % Ctrl
% Ctrl @ 10000 nM (ACVR1B): 63 % Ctrl
% Ctrl @ 10000 nM (ERK2): 100 % Ctrl
% Ctrl @ 10000 nM (PAK6): 70 % Ctrl
% Ctrl @ 10000 nM (MAPKAPK2): 90 % Ctrl
% Ctrl @ 10000 nM (FGFR2): 100 % Ctrl
% Ctrl @ 10000 nM (ROS1): 46 % Ctrl
% Ctrl @ 10000 nM (ULK2): 39 % Ctrl
% Ctrl @ 10000 nM (EPHA2): 100 % Ctrl
% Ctrl @ 10000 nM (IKK-beta): 51 % Ctrl

C#Cc1cccc(Nc2ncnc3cc(OC)c(OCCCN4CCOCC4)cc23)c1.Cl [NRC-2694 monohydrochloride, N-(3-ethylnylphenyl)-7-methoxy-6-[3-(4-morpholinyl)propoxy]-4-quinazolinamine mono hydrochloride]
maximum tolerated dose (MTD) ([3]; acute oral gavage, Swiss albino mice): 1000 mg/kg body weight
gross pathological examination ([3]; mice, after day 14): did not reveal any lesions of pathological significance
mean body weight and percent body weight ([3]; mice, compared with control groups): No significant alterations
toxic signs or mortality ([3]; mice, oral gavage, 250 mg/kg body weight (low dose) and 500 mg/kg (mid dose)): did not produce any toxic signs or mortality
clinical signs of toxicity ([3]; mice, listed as NRC-2694A blend): signs of lethargy and piloerection in all animals without any mortality
clinical signs of toxicity ([3]; mice): mild lethargy and piloerection
mortality ([3]; mice, oral, 250, 500 and 1000 mg/kg, 14 days observation): No mortality
